The subject of one experiment is CSN^ΔCSNAP complex. The experiment is described as follows: Peptide array screen of C-CSNAP peptides with rCSN^ΔCSNAP.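 Further: Array-printed peptides incubated with 0.5 µM CSN^ΔCSNAP, bound complex detected by anti-CSN3 antibody plus HRP-linked secondary, spot intensity expressed relative to the parent reference peptide spot.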 Format: binding. Conditions: average of 5 experiments.
For another experiment, the system named is recombinant CSN complex. The experiment in a line: Peptide array screen of C-CSNAP peptides with recombinant CSN (rCSN^WT).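 On all read-outs here: densitometric signal of CSN bound to each synthesized peptide spot, with an antibody-only array lacking CSN run to exclude non-specific binding, higher values meaning stronger binding.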 Format: binding. As to conditions: for Average fold change, intensities as fold of C-CSNAP (A1): rCSN^WT on INTAVIS Celluspots array, anti-CSN3 and HRP secondary antibody, average of six replicates (three independent experiments in duplicates); for Average fold change: peptide array with rCSN, average of 3 experiments, left and right (n = 6), fold of C-CSNAP (A1).

Setting [1] is: peptide array, rCSN^ΔCSNAP, left and right spots.
Setting [2] is: peptide array with rCSN^ΔCSNAP, left and right (n = 10), fold of C-CSNAP (A1).

Where no end group is shown, it is not given here. [ ]: non-standard residue; d: D form. Aib = CC(C)(N)C(=O)O

Method for recombinant CSN complex: To generate an optimized C-CSNAP peptide, we used the peptide array methodology. The array was designed to screen for the optimal peptide length, sequence, and stability (Fig 3A). A recombinant CSN complex was expressed, purified, and screened for binding to the peptide array by using an anti-CSN3 antibody. To rule out non-specific binding of the probing antibody, a control experiment was carried out without the addition of the CSN complex (Fig 3A right panel).
C-CSNAP peptide and its derivatives were synthesized on a microarray. The array was blocked and incubated with or without the COP9 signalosome complex (CSN) and probed using an anti-CSN3 antibody and HRP-conjugated secondary antibody. To assess non-specific binding of the antibodies to the array, anti-CSN3 and anti-GAR–HRP were used without the addition of the CSN. Signal intensity of each spot was measured and normalized to the intensity of the spot of C-CSNAP (A1). Measured values for each spot were averaged from six arrays and plotted with SEM. […] (A) A representative image of the peptide array (left) and the background (right). (B) Elongation of the C-terminal 16 amino acids (green) with one residue at a time based on the full-length sequence. […] (F) Single D-amino acid substitution at various positions.
Intensity values are normalized to the intensity of the 16AA C-CSNAP peptide (A1) on each array from three independent experiments in duplicates, and averages from the six replicates are calculated with SEM.
Optimization of C-CSNAP sequence for enhanced binding to recombinant CSN^ΔCSNAP was screened by printing the modified sequences of CSNAP or C-CSNAP (Phe to Trp, Asp to Glu, Ala screen, D-amino acid screen, N-α-methylation, and Aib incorporation on INTAVIS Celluspots array [2 × 384spots]). The array was blocked with 5% skim milk in TBS-0.5% Tween 20 (TBS-T) for 4 h at room temperature, washed three times in TBS-T, and then incubated with 0.5 μM CSN^ΔCSNAP in 5% milk–TBS-T. Bound CSN^ΔCSNAP was visualized by incubating with anti-CSN3 (ab79698) antibody (1:10,000, overnight) and goat-anti-rabbit-HRP secondary antibody (1:10,000, 1 h).

Regarding “DWFNDFEDLFDDDDIQ [Position C12, C-CSNAP, Phe to Trp substitution F43W]”, the Average fold change in the experiment with CSN^ΔCSNAP complex (setting [1]) is recorded as 1.2910 fold of C-CSNAP (A1). In the experiment on recombinant CSN complex, the “Average fold change, intensities as fold of C-CSNAP (A1)” value (“Average fold change, intensities” below) was 0.7756 fold of C-CSNAP (A1).

As for “DFFNDFEDLFEEDDIQ [E 1, C-CSNAP, Asp to Glu substitution D52,53E]”, in the experiment on CSN^ΔCSNAP complex (setting [1]), the Average fold change was 1.1244 fold of C-CSNAP (A1). In addition, the “Average fold change, intensities” value with recombinant CSN complex is given as 0.6914 fold of C-CSNAP (A1).

On to “EFFNEFEDLFDDDEIQ [E 8, C-CSNAP, Asp to Glu substitution D42,46,55E]”, for which the Average fold change in the experiment with CSN^ΔCSNAP complex (setting [1]) is listed as 0.9227 fold of C-CSNAP (A1). For the same substance, the “Average fold change, intensities” value with recombinant CSN complex was 0.7616 fold of C-CSNAP (A1).

Take DFFNDFEDLFEDEEIQ [D52,53,56E]: the values for the Average fold change with CSN^ΔCSNAP complex (setting [1]) and in the experiment with recombinant CSN complex were 1.1721 fold of C-CSNAP (A1) and 0.6027 fold, respectively.

For the substance “LAANEKAVHADFFNDFEDLFDDDDIQ [Position A11, CSNAP residues 32-57]”, the Average fold change with CSN^ΔCSNAP complex (setting [2]) is 1.1791 fold. For the same substance, the “Average fold change, intensities” value in the experiment with recombinant CSN complex is recorded as 1.1357 fold of C-CSNAP (A1).

“KAVHADFFNDFEDLFDDDDIQ [A 6, CSNAP residues 37-57]”: the Average fold change in the experiment with CSN^ΔCSNAP complex (setting [2]) is given as 0.9179 fold. The “Average fold change, intensities” value in the experiment on recombinant CSN complex is 1.1025 fold of C-CSNAP (A1).

With “DAFNDFEDLFDDDDIQ [Position B21, C-CSNAP, Ala substitution F43A]”, the Average fold change in the experiment on CSN^ΔCSNAP complex (setting [2]) amounted to 1.1048 fold. In the experiment on recombinant CSN complex, the “Average fold change, intensities” value is recorded as 0.8509 fold of C-CSNAP (A1).

As to “DFFNEFEDLFEDDDIQ [Position D17, C-CSNAP, Asp to Glu substitution D46,52E]”, the Average fold change in the experiment on CSN^ΔCSNAP complex (setting [1]) is listed as 1.1441 fold of C-CSNAP (A1). Also, the “Average fold change, intensities” value with recombinant CSN complex is 0.7655 fold of C-CSNAP (A1).

With “DFFNEFEDLFDDDDIQ [D 4, C-CSNAP, Asp to Glu substitution D46E]”, the Average fold change with CSN^ΔCSNAP complex (setting [1]) is 1.0457 fold of C-CSNAP (A1). Besides, the “Average fold change, intensities” value in the experiment on recombinant CSN complex is on record as 1.0255 fold of C-CSNAP (A1).

Regarding EFFNEFEELFDEDDIQ [D42,46,49,53E], the values for the Average fold change with CSN^ΔCSNAP complex (setting [1]) and in the experiment with recombinant CSN complex were 1.2266 fold of C-CSNAP (A1) and 0.3807 fold, respectively.

“DFFNDFEELFDDEDIQ [Position D23, C-CSNAP, Asp to Glu substitution D49,54E]”: the Average fold change in the experiment with CSN^ΔCSNAP complex (setting [1]) is listed as 1.0923 fold of C-CSNAP (A1). In addition, the “Average fold change, intensities” value with recombinant CSN complex is recorded as 0.5825 fold of C-CSNAP (A1).

For the substance “GAGPYVDLDEAGGSTGLLMDLAANEKAVHADFFNDFEDLFDDDDIQ [B 7, CSNAP residues 12-57]”, the Average fold change in the experiment with CSN^ΔCSNAP complex (setting [2]) came out at 1.0720 fold. Besides, the “Average fold change, intensities” value in the experiment on recombinant CSN complex is reported as 1.1696 fold of C-CSNAP (A1).

As to “DFFNEFEELFDDDDIQ [Position D16, C-CSNAP, Asp to Glu substitution D46,49E]”, the Average fold change with CSN^ΔCSNAP complex (setting [1]) is 1.2614 fold of C-CSNAP (A1). Besides, the “Average fold change, intensities” value with recombinant CSN complex was 0.7250 fold of C-CSNAP (A1).

Turning to “GGSTGLLMDLAANEKAVHADFFNDFEDLFDDDDIQ [Position A20, CSNAP residues 23-57]”, in the experiment on CSN^ΔCSNAP complex (setting [2]), the Average fold change amounted to 1.1737 fold. Further, in the experiment with recombinant CSN complex, the “Average fold change, intensities” value was 0.8793 fold of C-CSNAP (A1).

On to “HADFFNDFEDLFDDDDIQ [A 3, CSNAP residues 40-57]”, for which, in the experiment with CSN^ΔCSNAP complex (setting [2]), the Average fold change is listed as 0.8215 fold. Further, the “Average fold change, intensities” value in the experiment with recombinant CSN complex is 1.0326 fold of C-CSNAP (A1).

With DFFNDFEELFEEEDIQ [D49,52,53,54E], the Average fold change is on record as 0.9844 fold of C-CSNAP (A1) in the experiment with CSN^ΔCSNAP complex (setting [1]) and 0.6224 fold with recombinant CSN complex.

Consider DFFNEFEELFEEDDIQ [D46,49,52,53E], for which the figures for the Average fold change with CSN^ΔCSNAP complex (setting [1]) and with recombinant CSN complex were 0.8013 fold of C-CSNAP (A1) and 0.5885 fold, respectively.

For “DFFNDFEDLFDD[Aib]DIQ[Aib] [Position H18, C-CSNAP with Aib incorporation (54,58)]”, the “Average fold change, intensities” value in the experiment on CSN^ΔCSNAP complex (setting [1]) is given as 1.0167 fold; in the experiment on recombinant CSN complex, 0.2987 fold of C-CSNAP (A1). In addition, in the experiment with recombinant CSN complex (rCSN^WT peptide array, replicate: Experiment #1, left array), the “intensities as fold of C-CSNAP (A1), Experiment #1 left” value is reported as 0.3071 fold of C-CSNAP (A1). The “intensities as fold of C-CSNAP (A1), Experiment #1 right” value in the experiment on recombinant CSN complex (rCSN^WT peptide array, replicate: Experiment #1, right array) was 0.2334 fold of C-CSNAP (A1). Moreover, the “intensities as fold of C-CSNAP (A1), Experiment #2 left” value in the experiment on recombinant CSN complex (rCSN^WT peptide array, replicate: Experiment #2, left array) is recorded as 0.1973 fold of C-CSNAP (A1). For the same substance, the “intensities as fold of C-CSNAP (A1), Experiment #2 right” value with recombinant CSN complex (rCSN^WT peptide array, replicate: Experiment #2, right array) is 0.2444 fold of C-CSNAP (A1). The “intensities as fold of C-CSNAP (A1), Experiment #3 left” value in the experiment on recombinant CSN complex (rCSN^WT peptide array, replicate: Experiment #3, left array) is recorded as 0.2003 fold of C-CSNAP (A1). The “intensities as fold of C-CSNAP (A1), Experiment #3 right” value with recombinant CSN complex (rCSN^WT peptide array, replicate: Experiment #3, right array) is on record as 0.6096 fold of C-CSNAP (A1).

These data come from PMC10355216, “The C-terminal tail of CSNAP attenuates the CSN complex” (Life Science Alliance, 2023).
